Key:
Experiment in all cases: relative viability (nuclei count vs DMSO), 5 days (fraction); higher = more cells survive
Serdemetan + Bortezomib = compound: c1ccc2c(CCNc3ccc(Nc4ccncc4)cc3)c[nH]c2c1 [Serdemetan] + CC(C)C[C@H](NC(=O)[C@H](Cc1ccccc1)NC(=O)c1cnccn1)B(O)O [Bortezomib] (partner 0.002 µM)
In short: (§1)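 Nuclei were stained with Hoechst during a one-step fixation (final 0.05% Triton X-100, 1% formaldehyde, 1 ug/ml Hoechst) carried out 5 days after dosing, then counted on 4× images. The cells, lung cancer lines in 1536-well plates, had been dosed by pin tool the day after seeding with one drug alone or a fixed anchor-drug dose plus five library-drug doses (not always all listed) in √10 steps. Relative viability is the nuclei count in treated wells divided by that in vehicle wells, and each value is the median of duplicate plates.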

Selisistat + Dasatinib = compound: C1CC(C2=C(C1)C3=C(N2)C=CC(=C3)Cl)C(=O)N [Selisistat] + Cc1nc(Nc2ncc(C(=O)Nc3c(C)cccc3Cl)s2)cc(N2CCN(CCO)CC2)n1 [Dasatinib] (partner 0.075 µM)
In short: as §1

Serdemetan + Pemetrexed = compound: c1ccc2c(CCNc3ccc(Nc4ccncc4)cc3)c[nH]c2c1 [Serdemetan] + Nc1nc2[nH]cc(CCc3ccc(C(=O)N[C@@H](CCC(=O)O)C(=O)O)cc3)c2c(=O)[nH]1 [Pemetrexed] (partner 0.2 µM)
In short: as §1

Serdemetan + Tozasertib = compound: c1ccc2c(CCNc3ccc(Nc4ccncc4)cc3)c[nH]c2c1 [Serdemetan] + Cc1cc(Nc2cc(N3CCN(C)CC3)nc(Sc3ccc(NC(=O)C4CC4)cc3)n2)n[nH]1 [Tozasertib] (partner 0.1 µM)
In short: as §1

| Cell Line | relative viability (Serdemetan + Bortezomib; first compound 0.04 µM) | relative viability (Serdemetan + Bortezomib; first compound 0.1265 µM) | relative viability (Serdemetan + Bortezomib; first compound 0.4 µM) | relative viability (Serdemetan + Bortezomib; first compound 1.265 µM) | relative viability (Serdemetan + Bortezomib; first compound 4 µM) | relative viability (Selisistat + Dasatinib; first compound 0.4 µM) | relative viability (Selisistat + Dasatinib; first compound 1.265 µM) | relative viability (Selisistat + Dasatinib; first compound 4 µM) | relative viability (Selisistat + Dasatinib; first compound 12.65 µM) | relative viability (Selisistat + Dasatinib; first compound 40 µM) | relative viability (Serdemetan + Pemetrexed; first compound 0.04 µM) | relative viability (Serdemetan + Pemetrexed; first compound 0.1265 µM) | relative viability (Serdemetan + Pemetrexed; first compound 0.4 µM) | relative viability (Serdemetan + Pemetrexed; first compound 1.265 µM) | relative viability (Serdemetan + Pemetrexed; first compound 4 µM) | relative viability (Serdemetan + Tozasertib; first compound 0.04 µM) | relative viability (Serdemetan + Tozasertib; first compound 0.1265 µM) | relative viability (Serdemetan + Tozasertib; first compound 0.4 µM) | relative viability (Serdemetan + Tozasertib; first compound 1.265 µM) | relative viability (Serdemetan + Tozasertib; first compound 4 µM) |
| --- | --- | --- | --- | --- | --- | --- | --- | --- | --- | --- | --- | --- | --- | --- | --- | --- | --- | --- | --- | --- |
| 201T | 1.08 | 1.14 | 1.1 | 1.05 | 1.06 | 0.588 | 0.551 | 0.581 | 0.528 | 0.534 | 0.306 | 0.287 | 0.29 | 0.332 | 0.353 | 0.983 | 0.939 | 0.925 | 0.787 | 0.497 |
| A-427 | 0.954 | 1.03 | 0.959 | 0.662 | 0.598 | 0.744 | 0.657 | 0.584 | 0.752 | 0.772 | 0.958 | 0.927 | 1.04 | 0.698 | 0.854 | 0.2 | 0.198 | 0.192 | 0.165 | 0.16 |
| ABC-1 | 0.294 | 0.328 | 0.317 | 0.307 | 0.278 | 0.553 | 0.469 | 0.589 | 0.588 | 0.509 |  |  |  |  |  | 0.132 | 0.171 | 0.182 | 0.177 | 0.162 |
| BEN | 0.785 | 0.924 | 0.766 | 0.48 | 0.763 | 0.308 | 0.269 | 0.233 | 0.353 | 0.295 | 0.717 | 0.614 | 0.849 | 0.955 | 0.634 | 0.451 | 0.477 | 0.531 | 0.478 | 0.469 |
| CAL-12T |  | 1.11 |  | 0.931 | 1.04 | 0.451 | 0.478 | 0.316 | 0.281 | 0.372 | 1.17 | 1.19 | 0.951 | 1.19 | 1.05 | 0.272 | 0.318 | 0.246 | 0.309 | 0.327 |
| COR-L23 | 0.918 | 0.863 | 0.996 | 0.669 | 0.978 | 0.523 | 0.583 | 0.579 | 0.529 | 0.494 | 0.206 | 0.208 | 0.213 | 0.192 | 0.186 | 0.236 | 0.201 | 0.224 | 0.174 | 0.165 |
| COR-L 105 | 0.775 | 0.764 | 0.563 | 0.7 | 0.745 | 0.339 | 0.357 |  | 0.297 | 0.32 | 1.06 | 0.991 | 0.948 | 1.14 | 0.967 | 0.313 | 0.336 | 0.357 | 0.405 | 0.366 |
| Calu-6 | 1.1 | 0.969 | 1.04 | 0.864 | 0.672 |  |  |  |  |  |  |  |  |  |  |  |  |  |  |  |
| ChaGo-K-1 |  | 1.14 | 0.697 | 0.775 | 0.849 | 0.562 | 0.551 | 0.563 | 0.539 | 0.592 | 0.277 | 0.261 | 0.372 | 0.257 | 0.254 | 0.231 | 0.232 | 0.2 | 0.178 | 0.167 |
| EBC-1 | 0.482 | 0.575 | 0.588 | 0.563 | 0.421 |  |  |  |  |  |  |  |  |  |  |  |  |  |  |  |
| EKVX | 1.09 | 1 | 0.857 | 0.911 | 1.25 | 0.575 | 0.509 |  | 0.409 | 0.392 | 0.335 | 0.401 |  |  | 0.376 | 0.424 | 0.426 | 0.327 |  | 0.29 |
| EMC-BAC-2 | 1.07 | 1.06 | 1.04 | 0.907 | 0.939 | 0.355 | 0.367 | 0.378 | 0.317 | 0.315 | 0.457 | 0.446 | 0.437 | 0.346 | 0.4 | 0.246 | 0.298 | 0.248 | 0.22 | 0.217 |
| EPLC-272H | 0.967 | 0.931 | 0.899 | 0.723 | 0.634 | 0.352 | 0.33 |  | 0.369 | 0.381 | 0.316 | 0.367 | 0.342 | 0.269 | 0.374 | 0.269 | 0.309 | 0.306 | 0.169 | 0.249 |
| H3255 | 0.827 | 0.68 | 0.886 | 0.746 | 0.7 | 0.385 | 0.369 | 0.309 | 0.331 | 0.428 | 0.594 | 0.462 | 0.541 | 0.539 | 0.572 | 0.678 | 0.693 | 0.629 | 0.626 | 0.556 |
| HARA | 1.09 | 1.1 | 1.15 |  | 1.08 | 0.25 | 0.299 | 0.202 | 0.166 | 0.264 | 0.202 | 0.254 | 0.226 | 0.196 | 0.257 | 0.0876 | 0.0858 | 0.0868 | 0.0805 | 0.0776 |
| HCC-15 | 1 | 1.01 | 1.01 | 0.954 | 0.855 | 0.716 | 0.625 |  | 0.594 | 0.613 | 0.216 | 0.195 | 0.215 | 0.226 | 0.213 | 0.377 | 0.367 | 0.377 | 0.294 | 0.283 |
| HCC-44 | 0.854 | 0.849 | 0.827 | 0.621 | 0.85 |  |  |  |  |  | 0.62 | 0.621 | 0.577 | 0.574 | 0.644 | 1 | 1.04 | 0.765 | 0.915 | 0.869 |
| HCC-78 | 0.471 | 0.524 | 0.476 | 0.52 | 0.372 | 0.486 | 0.628 | 0.293 | 0.421 | 0.414 | 0.93 | 0.879 | 0.903 | 0.917 | 0.915 | 0.414 | 0.354 | 0.363 | 0.329 | 0.303 |
| HCC-366 | 1.08 | 1.04 | 1.03 | 0.0358 | 0.0541 | 0.591 | 0.606 | 0.297 | 0.599 | 0.588 | 0.177 | 0.135 | 0.15 | 0.0885 | 0.055 | 0.134 | 0.0681 | 0.0532 | 0.0456 | 0.042 |
